# Results as given in article PMC11892739, “Site-specific molecular glues for the 14-3-3/Tau pS214 protein–protein interaction via reversible covalent imine tethering” (RSC Medicinal Chemistry, 2025).
# Molecular target: T1, 14-3-3ζ/p53 peptide (Homo sapiens, UniProt P63104)
# T1 construct: made in house; host or cells: NiCo21 (DE3) E. coli
# Assay: FA peptide screen, 14-3-3ζ titration to client peptide and compound: p53
# Type: binding
# Conditions: 250 μM compound, 100 nM peptide; +1 Glu
# Protocol: Since the hub protein 14-3-3 binds to hundreds of phosphoprotein partners, selectivity of PPI stabilization is a major challenge. The interplay of chemical reactivity, and the topology and functionality of the composite binding pocket shaped by 14-3-3 and Tau potentially provide entries towards selective stabilization. […] Here, 14-3-3ζ was titrated to a constant concentration of client peptide (100 nM) and compound (250 μM) to determine the SF250μM values for the particular 14-3-3 PPI. A variety of 14-3-3 binding proteins was represented in this client panel whereby the size and hydrophobicity of the +1 amino acid were varied. […]
# chromatography (HisTrap high performance cartridges, Cytiva). […] Dialyzed protein was concentrated to ∼40 mg/mL, analyzed by Q -Tof LC/MS, and aliquots were flash -frozen for storage at −80 °C. […]
# 0.1% (v/v) Tween20, 0.1% (w/v) BSA). […] Measurements were performed directly after plate preparation, using a Tecan SPARK plate reader at room temperature ( λex: 485±20 nm; λem: 535±25 nm; mirror: automatic; flashes: 30; settle time: 1 ms; gain: optimal; Z -position: calculated from well). […] All data were analyzed using GraphPad Prism (10.0.1) and fitted with a four -parameter logistic model (4PL) to determine binding affinities (dissociation constant, KD). […]
# Fluorescence Anisotropy – peptide screen […]
# T1 sequence (P63104 whole entry, other chains not shown): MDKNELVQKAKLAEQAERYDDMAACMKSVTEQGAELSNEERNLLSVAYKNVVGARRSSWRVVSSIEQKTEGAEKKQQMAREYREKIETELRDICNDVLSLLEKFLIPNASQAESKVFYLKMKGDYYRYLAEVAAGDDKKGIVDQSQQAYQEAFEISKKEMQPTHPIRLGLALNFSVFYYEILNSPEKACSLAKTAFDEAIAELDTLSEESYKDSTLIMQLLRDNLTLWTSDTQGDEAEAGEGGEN
compound,measurement,value
CCc1ccc(-c2nccn2-c2ccc(C=O)c(Br)c2)cc1 [Compound 18],stabilization of 14-3-3/p53 peptide (in words),did not show significant stabilizing activity
